Measured values taken from PMC8398451, “Molecular Engineering of Curcumin, an Active Constituent of Curcuma longa L. (Turmeric) of the Family Zingiberaceae with Improved Antiproliferative Activity” (Plants, 2021).

Assays:
SR = assay: NCI antiproliferative SRB assay, Leukemia panel; format: cell-based, Human
HCT-116 = assay: NCI antiproliferative SRB assay, Colon Cancer panel; format: cell-based, Human
NCI-H226 = assay: NCI antiproliferative SRB assay, Non-Small Cell Lung Cancer panel; format: cell-based, Human
SNB-19 = assay: NCI antiproliferative SRB assay, CNS Cancer panel; format: cell-based, Human
EGFR = target: T1, EGFR (Homo sapiens, UniProt P00533); assay: Spectrophotometric assay for EGFR tyrosine kinase inhibition in A431 cells; format: cell-based; conditions: absorbance at 540 nm
T1 construct: tested for anti-EGFR activity in human A431 cells, which express high levels of EGFR protein; endogenous in cells; host or cells: human A431 cells
T1 sequence (P00533 25-1210): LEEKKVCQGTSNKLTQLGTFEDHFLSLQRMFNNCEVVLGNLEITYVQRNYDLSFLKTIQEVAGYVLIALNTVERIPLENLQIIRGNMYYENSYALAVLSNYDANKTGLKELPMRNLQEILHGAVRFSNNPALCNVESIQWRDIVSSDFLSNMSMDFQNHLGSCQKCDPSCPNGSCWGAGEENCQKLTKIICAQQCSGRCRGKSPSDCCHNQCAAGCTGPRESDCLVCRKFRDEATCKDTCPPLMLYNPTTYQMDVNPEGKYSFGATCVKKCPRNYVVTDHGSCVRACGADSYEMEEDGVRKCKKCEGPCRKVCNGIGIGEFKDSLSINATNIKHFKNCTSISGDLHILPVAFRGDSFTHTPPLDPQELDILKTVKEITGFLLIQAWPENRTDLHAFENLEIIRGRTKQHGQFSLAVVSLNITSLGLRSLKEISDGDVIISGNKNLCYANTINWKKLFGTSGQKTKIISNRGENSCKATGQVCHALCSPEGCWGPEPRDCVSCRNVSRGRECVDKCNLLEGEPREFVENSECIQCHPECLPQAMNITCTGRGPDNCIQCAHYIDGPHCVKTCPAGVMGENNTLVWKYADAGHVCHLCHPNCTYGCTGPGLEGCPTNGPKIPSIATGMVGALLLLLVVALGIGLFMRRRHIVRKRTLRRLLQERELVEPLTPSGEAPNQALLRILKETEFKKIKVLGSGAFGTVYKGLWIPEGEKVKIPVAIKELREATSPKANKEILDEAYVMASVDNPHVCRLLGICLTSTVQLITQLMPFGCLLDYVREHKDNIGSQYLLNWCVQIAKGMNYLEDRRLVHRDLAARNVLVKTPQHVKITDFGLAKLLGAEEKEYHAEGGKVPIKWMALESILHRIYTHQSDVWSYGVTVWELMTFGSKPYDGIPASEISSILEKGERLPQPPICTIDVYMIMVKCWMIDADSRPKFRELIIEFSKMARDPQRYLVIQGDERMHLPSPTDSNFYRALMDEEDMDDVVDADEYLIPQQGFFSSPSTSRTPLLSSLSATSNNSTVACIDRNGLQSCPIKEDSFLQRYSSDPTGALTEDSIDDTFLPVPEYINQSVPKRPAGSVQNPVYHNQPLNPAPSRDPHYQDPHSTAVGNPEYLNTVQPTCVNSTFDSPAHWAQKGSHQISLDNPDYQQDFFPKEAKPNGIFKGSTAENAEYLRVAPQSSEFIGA

SK-MEL-2 = assay: NCI antiproliferative SRB assay, Melanoma panel; format: cell-based, Human
SF-268 = assay: NCI antiproliferative SRB assay, CNS Cancer panel; format: cell-based, Human
COLO 205 = assay: NCI antiproliferative SRB assay, Colon Cancer panel; format: cell-based, Human
SNB-75 = assay: NCI antiproliferative SRB assay, CNS Cancer panel; format: cell-based, Human
A498 = assay: NCI antiproliferative SRB assay, Renal Cancer panel; format: cell-based, Human
OVCAR-8 = assay: NCI antiproliferative SRB assay, Ovarian Cancer panel; format: cell-based, Human
NCI-H322M = assay: NCI antiproliferative SRB assay, Non-Small Cell Lung Cancer panel; format: cell-based, Human
ACHN = assay: NCI antiproliferative SRB assay, Renal Cancer panel; format: cell-based, Human
[1] = tested on: Breast Cancer cell line panel; assay: NCI antiproliferative assay, panel summary; format: cell-based, Human
NCI/ADR-RES = assay: NCI antiproliferative SRB assay, Ovarian Cancer panel; format: cell-based, Human
BT-549 = assay: NCI antiproliferative SRB assay, Breast Cancer panel; format: cell-based, Human
EKVX = assay: NCI antiproliferative SRB assay, Non-Small Cell Lung Cancer panel; format: cell-based, Human
HL-60(TB) = assay: cells; format: cell-based
RXF 393 = assay: NCI antiproliferative SRB assay, Renal Cancer panel; format: cell-based, Human
HOP-92 = assay: NCI antiproliferative SRB assay, Non-Small Cell Lung Cancer panel; format: cell-based
KM12 = assay: NCI antiproliferative SRB assay, Colon Cancer panel; format: cell-based, Human
NCI-H522 = assay: NCI antiproliferative SRB assay, Non-Small Cell Lung Cancer panel; format: cell-based, Human
OVCAR-4 = assay: NCI antiproliferative SRB assay, Ovarian Cancer panel; format: cell-based, Human
RPMI-8226 = assay: NCI antiproliferative SRB assay, Leukemia panel; format: cell-based, Human
SF-295 = assay: NCI antiproliferative SRB assay, CNS Cancer panel; format: cell-based, Human
[2] = Homo sapiens, 5-dose 0.01-100 µM
[3] = Homo sapiens, 5-dose 0.01-100 µM, read-out: LC50 (the source's name)

`COc1cc(/C=C/c2cc(/C=C/c3ccc(O)c(OC)c3)n(C(=O)Nc3ccc(C(F)(F)F)cc3)n2)ccc1O` [3c] gave a TGI (SR; 5-dose 0.01-100 µM) of over 100 µM, a GI50 (SR; [2]) of 1.48 µM and a CC50 (SR; [3]) of over 100 µM. The “%GI” value (SR; one dose 10 µM) was 86.79%, the “GP (growth percent)” value (SR; one dose 10 µM) was 13.21 and the TGI (HCT-116; 5-dose 0.01-100 µM) was 2.94 µM. For the same compound, the GI50 (HCT-116; [2]) was 1.51 µM, the CC50 (HCT-116; [3]) was 5.7 µM and the “%GI” value (HCT-116; one dose 10 µM) was 153.67%. For the same compound, the “GP (growth percent)” value (HCT-116; one dose 10 µM) was −53.67, the TGI (NCI-H226; 5-dose 0.01-100 µM) was 27.6 µM and the GI50 (NCI-H226; [2]) was 7.29 µM. The CC50 (NCI-H226; [3]) was 91.7 µM, the “%GI” value (NCI-H226; one dose 10 µM) was 17.33% and the “GP (growth percent)” value (NCI-H226; one dose 10 µM) was 82.67. The TGI (SNB-19; 5-dose 0.01-100 µM) was 11.2 µM, the GI50 (SNB-19; [2]) was 3.16 µM and the CC50 (SNB-19; [3]) was 36.9 µM. For the same compound, the “%GI” value (SNB-19; one dose 10 µM) was 51.32%, the “GP (growth percent)” value (SNB-19; one dose 10 µM) was 48.68 and the IC50 (EGFR) was 4.18 µM. It also gave a TGI (SK-MEL-2; 5-dose 0.01-100 µM) of 17.3 µM, a GI50 (SK-MEL-2; [2]) of 3.15 µM and a CC50 (SK-MEL-2; [3]) of over 100 µM. The “%GI” value (SK-MEL-2; one dose 10 µM) was 15.53%, the “GP (growth percent)” value (SK-MEL-2; one dose 10 µM) was 84.47 and the TGI (SF-268; 5-dose 0.01-100 µM) was 15.4 µM. The GI50 (SF-268; [2]) was 2.8 µM, the CC50 (SF-268; [3]) was over 100 µM and the “%GI” value (SF-268; one dose 10 µM) was 62.88%. The “GP (growth percent)” value (SF-268; one dose 10 µM) was 37.12, the TGI (COLO 205; 5-dose 0.01-100 µM) was 4.50 µM and the GI50 (COLO 205; [2]) was 2.05 µM. The CC50 (COLO 205; [3]) was 9.91 µM, the “%GI” value (COLO 205; one dose 10 µM) was 48.73% and the “GP (growth percent)” value (COLO 205; one dose 10 µM) was 51.27. It also gave a TGI (SNB-75; 5-dose 0.01-100 µM) of 66.0 µM, a GI50 (SNB-75; [2]) of 2.99 µM and a CC50 (SNB-75; [3]) of over 100 µM. The “%GI” value (SNB-75; one dose 10 µM) was 28.20%, the “GP (growth percent)” value (SNB-75; one dose 10 µM) was 71.80 and the GI50 (A498; [2]) was 5.81 µM. For the same compound, the CC50 (A498; [3]) was 57.3 µM, the “%GI” value (A498; one dose 10 µM) was -8.03% and the “GP (growth percent)” value (A498; one dose 10 µM) was 108.03. It also gave a TGI (OVCAR-8; 5-dose 0.01-100 µM) of over 100 µM, a GI50 (OVCAR-8; [2]) of 3.33 µM and a CC50 (OVCAR-8; [3]) of over 100 µM. The “%GI” value (OVCAR-8; one dose 10 µM) was 99.57%, the “GP (growth percent)” value (OVCAR-8; one dose 10 µM) was 0.43 and the TGI (NCI-H322M; 5-dose 0.01-100 µM) was 12.9 µM. For the same compound, the GI50 (NCI-H322M; [2]) was 3.25 µM, the CC50 (NCI-H322M; [3]) was 49.6 µM and the “%GI” value (NCI-H322M; one dose 10 µM) was 17.30%. For the same compound, the “GP (growth percent)” value (NCI-H322M; one dose 10 µM) was 82.70, the TGI (ACHN; 5-dose 0.01-100 µM) was 7.08 µM and the GI50 (ACHN; [2]) was 2.48 µM. For the same compound, the CC50 (ACHN; [3]) was over 100 µM, the “GP (growth percent)” value (ACHN; one dose 10 µM) was 65.82 and the “Mean % GI” value ([1]; 10 µM) was 60.04%. For the same compound, the “Selectivity Ratio (MID a:MID b)” value ([1]; 5-dose assay) was 0.99, the GI50 ([1]; Homo sapiens, 5-dose assay, read-out: Sub Panel MID b (mean GI50 of panel)) was 2.86 µM and the TGI (NCI/ADR-RES; 5-dose 0.01-100 µM) was over 100 µM. The GI50 (NCI/ADR-RES; [2]) was 3.51 µM, the CC50 (NCI/ADR-RES; [3]) was over 100 µM and the “%GI” value (NCI/ADR-RES; one dose 10 µM) was 48.35%. For the same compound, the “GP (growth percent)” value (NCI/ADR-RES; one dose 10 µM) was 51.65, the TGI (BT-549; 5-dose 0.01-100 µM) was 3.67 µM and the GI50 (BT-549; [2]) was 1.96 µM. The CC50 (BT-549; [3]) was 6.86 µM, the “%GI” value (BT-549; one dose 10 µM) was 81.03% and the “GP (growth percent)” value (BT-549; one dose 10 µM) was 18.97. The TGI (EKVX; 5-dose 0.01-100 µM) was 38.4 µM, the GI50 (EKVX; [2]) was 3.22 µM and the CC50 (EKVX; [3]) was over 100 µM. The “%GI” value (EKVX; one dose 10 µM) was 38.75%, the “GP (growth percent)” value (EKVX; one dose 10 µM) was 61.25 and the TGI (HL-60(TB); 5-dose 0.01-100 µM) was 6.45 µM. For the same compound, the GI50 (HL-60(TB); [2]) was 1.98 µM, the CC50 (HL-60(TB); [3]) was over 100 µM and the “%GI” value (HL-60(TB); one dose 10 µM) was 84.83%. For the same compound, the “GP (growth percent)” value (HL-60(TB); one dose 10 µM) was 15.17, the TGI (RXF 393; 5-dose 0.01-100 µM) was 3.73 µM and the GI50 (RXF 393; [2]) was 1.98 µM. For the same compound, the “%GI” value (RXF 393; one dose 10 µM) was 77.34%, the “GP (growth percent)” value (RXF 393; one dose 10 µM) was 22.66 and the TGI (HOP-92; 5-dose 0.01-100 µM) was 6.79 µM. For the same compound, the GI50 (HOP-92; Homo sapiens) was 2.35 µM, the CC50 (HOP-92; [3]) was over 100 µM and the TGI (KM12; 5-dose 0.01-100 µM) was 5.59 µM. For the same compound, the GI50 (KM12; [2]) was 2.33 µM, the CC50 (KM12; [3]) was 54 µM and the “%GI” value (KM12; one dose 10 µM) was 58.62%. The “GP (growth percent)” value (KM12; one dose 10 µM) was 41.38, the TGI (NCI-H522; 5-dose 0.01-100 µM) was 4.65 µM and the GI50 (NCI-H522; [2]) was 1.78 µM. For the same compound, the CC50 (NCI-H522; [3]) was 40.8 µM, the “%GI” value (NCI-H522; one dose 10 µM) was 92.68% and the “GP (growth percent)” value (NCI-H522; one dose 10 µM) was 7.32. The TGI (OVCAR-4; 5-dose 0.01-100 µM) was 52.7 µM, the GI50 (OVCAR-4; [2]) was 3.51 µM and the CC50 (OVCAR-4; [3]) was over 100 µM. The “%GI” value (OVCAR-4; one dose 10 µM) was 23.29%, the “GP (growth percent)” value (OVCAR-4; one dose 10 µM) was 76.71 and the TGI (RPMI-8226; 5-dose 0.01-100 µM) was 6.59 µM. For the same compound, the GI50 (RPMI-8226; [2]) was 2.09 µM, the CC50 (RPMI-8226; [3]) was over 100 µM and the “%GI” value (RPMI-8226; one dose 10 µM) was 100.21%. The “GP (growth percent)” value (RPMI-8226; one dose 10 µM) was −0.21, the TGI (SF-295; 5-dose 0.01-100 µM) was 9.85 µM and the GI50 (SF-295; [2]) was 2.89 µM. For the same compound, the CC50 (SF-295; [3]) was 76.5 µM, the “%GI” value (SF-295; one dose 10 µM) was 16.58% and the “GP (growth percent)” value (SF-295; one dose 10 µM) was 83.42.
